Test [1] relates to anti-gentamycin-rabbit antibody. Put plainly: Antibiotic residue test for gentamycin in milk (sequential assay; antibody/HRPO-protein A conjugate, immobilized gentamycin-spacer-BSA). Format: binding. To be noted: for reader units expressed in %: measured at 650 nanometer. How it is done:
The gentamycin assay is in general developed with the same basics as the β-lactam-assay. We will therefore give in this example the same outline as the β-lactam assay of Example 1 with description of differences.
A commercial anti-gentamycin-rabbit antibody is obtained from Biodesign International, Kennebunkport, Me., U.S.A. The anti-gentamycin-rabbit antiserum is absorbed to remove the bovine serum albumin (BSA) carrier antibodies. A solution containing 10 mg/ml sulfosuccinicmidylsuberate-BSA and 2 mg of unreacted BSA is mixed with the raw antiserum in the ratio of 10 to 1. This removes all detectable reactivity with BSA.
Absorbed anti-gentamycin antiserum is reacted with horseradish peroxidase labelled Staphylococcus aureus protein A to form an antibiotic binding protein enzyme conjugate. An optimal ratio of antibody to protein A is determined by forming the assay with checkerboard titrations of the two components diluted in phosphate buffered saline containing 1% BSA.
In this example gentamycin is used for conjugation to Bovine Serum Albumin (BSA). A spacer between gentamycin and the BSA is used to obtain the best affinity and specificity. The spacer is the same as used in Example 1.
As described in the β-lactam test, the gentamycin-spacer-protein conjugate is coated to a solid phase.
The same test method as described in Example 1 for the β-lactam test can be used for the gentamycin test. However, this test uses all incubations at a temperature of 20° C.

The test system of test [2] is antibiotic binding protein. Put plainly: Antibiotic residue test for β-lactams in milk (sequential assay; HRPO-labelled antibiotic binding protein, immobilized 7ACA-spacer-BSA). More on the design: species or system Bacillus stearothermophilus. To be noted: for sensitivity ppb: test according to Example 1, other β-lactams; for reader units expressed in %: measured at 650 nanometer. On the procedure:
A grown culture of an antibiotic sensitive microorganism in this example Bacillus stearothermophilus (continuous culture art. #108 Porton Products Ltd, UK) was lysed overnight at 4° C. with lysozyme, DNAse and triton X-100 in 0.1M phosphate pH 7.0. The lysate was centrifuged for 30 minutes at approximately 1600×g (4° C.). After centrifugation the supernatant was mixed with an antibiotic affinity gel matrix, for example to prepare a 7-aminocephalosporanic acid (7ACA) affinity gel matrix the following method was used.
The 7ACA-affigel and the supernatant of the lysed culture was mixed for 3 hours at 20° C. gently on a shaker. The gel was washed six times with 0.1M phosphate+1M NaCl pH 7.0. For each wash was used 500 ml.
In this example horse-radish peroxidase (HRPO) is used. 1 mg HRPO (suitable for labelling) in 1 ml of distilled water (d.i.-water) and 0.2 ml 0.1M Na-periodate was mixed 20 minutes at 20° C. and dialysed overnight at 4° C. against 0.001M Na-acetate pH 4.4. This dialysate was adjusted to pH 9.0-9.6 by adding 25 μl of 0.1M carbonate. Directly hereafter 1 mg abp (Pierce protein assay) was added into the dialysate. The mixture was gently shaken for 2 hours at room temperature. Thereafter 150 μl of 4 mg Na-borohydride/ml d.i.-water was added to the mixture, this was incubated for 2 hours at 4° C.
40 mg of 7ACA was added to 4 ml of 50 mM Hepes (pH 7.5) solution. After dissolving the pH was adjusted to pH 7.0 with 1N NaOH. Hereafter 20 mg BSA and 40 mg Bis(sulfosuccinicmidyl)suberate (spacer) and an extra 2 ml of 50 mM Hepes solution was added. The mixture was gently shaken for 45 minutes at 20° C.
0.125 ml dialysate (7ACA-spacer-BSA conjugate) was added to 500 ml carbonate pH 9.6. 0.5 ml of this solution was added to the polystyrene star tubes (NUNC MAXISORB®). Tubes were covered and incubated overnight at 4° C. After incubation the β-lactam spacer protein conjugate dilution was removed from the tubes and 2 ml 0.05M phosphate+0.5% BSA+2% sucrose+0.1M glycine pH 7.2 was added to each tube. After 1 hour at 20° C. the tubes were emptied and dried for 48 hours at 22°-27° C. with less than 30% humidity. Dried tubes are stable for at least 1 year at 4° C.
0.2 ml of milk sample and 0,2 ml of a diluted abp-enzyme conjugate was added to an empty reaction ampoule. After incubation for 2 minutes at 64° C. the contents of the tube was transferred to the coated tube. After the second incubation of 2 minutes at 64° C. the contents of the coated tube was dumped into the sink and the tubes were washed three times with 50×diluted wash solution by filling the tubes, dumping the contents into the sink and removing residuals by tapping on absorbent paper. After the wash, 0.5 ml of TM-blue® colour-substrate was added into the tube. This incubation for 4 minutes at room temperature was stopped by adding 0.5 ml of stop solution (1.5% NaF). The colour development at 650 nm was compared with an antibiotic standard tested along with the sample.

For gentamycin [gentamycine], the “reader units expressed in %” value in test [1] (2.5 ppb gentamycine present in sample) came to 55%; in test [1] (5 ppb gentamycine present in sample) it was 39%; in test [1] (10 ppb gentamycine present in sample), 31%; in test [1] (20 ppb gentamycine present in sample) it was 23%; in test [1] (30 ppb gentamycine present in sample) it was 20%; in test [1] (36 ppb gentamycine present in sample), 18%. For the same compound, the “detectable gentamycin residue, can be lowered to (referred to Table III)” value in test [1] (milk, all incubations at 20° C.) stood at 2.5 ppb. Further, in test [1] (milk, total incubation time 8 minutes, all incubations at 20° C.), the “lowest detectable gentamycin residue” value was 30 ppb.

`CC1(C)S[C@@H]2[C@H](NC(=O)[C@H](N)c3ccccc3)C(=O)N2[C@H]1C(=O)O` [Ampicillin] came in with a sensitivity ppb in test [2] of 10 ppb.

For `CO/N=C(\C(=O)N[C@@H]1C(=O)N2C(C(=O)O)=C(CSC(=O)c3ccco3)CS[C@H]12)c1csc(N)n1` [Ceftiofur], the sensitivity ppb in test [2] was found to be 5 ppb.

Turning to `CC1(C)S[C@@H]2[C@H](NC(=O)Cc3ccccc3)C(=O)N2[C@H]1C(=O)O` [Pen. G, benzylpenicillin], the “reader units expressed in %” value in test [2] (1.25 ppb Pen. G present in sample, milk) amounted to 96%; in test [2] (2 ppb Pen. G present in sample, milk), 69%; in test [2] (3 ppb Pen. G present in sample, milk) it was 65%; in test [2] (4 ppb Pen. G present in sample, milk), 51%; in test [2] (5 ppb Pen. G present in sample, milk), 47%; in test [2] (10 ppb Pen. G present in sample, milk) it was 32%. Moreover, the “lowest detectable benzylpenicillin residue (test sensitivity)” value in test [2] (milk, total incubation time 8 minutes (test time not exceeding about 12 minutes)) came out at 5 ppb.

In test [2], `CC(=O)OCC1=C(C(=O)O)N2C(=O)[C@@H](NC(=O)CSc3ccncc3)[C@H]2SC1` [Cephapirin] returned a sensitivity ppb of 5 ppb.

Compound `CC1(C)S[C@@H]2[C@H](NC(=O)[C@H](N)c3ccc(O)cc3)C(=O)N2[C@H]1C(=O)O` [Amoxicillin] showed a sensitivity ppb in test [2] of 5 ppb.

Source of the values: patent publication US5434053A, “Detection of antibiotics” (Gist-Brocades N.V., priority 1992, dated 1995).
